From patent publication US10377753B2, “Substituted 4-azaindoles and their use as GluN2B receptor modulators” (Janssen Pharmaceutica NV, priority 2015, dated 2019)

These compounds were tested against cloned human NR1/NR2B ion channels (Homo sapiens (Human), UniProt Q05586+Q13224) (assay: HNR2BC: effects of test articles on cloned human NR1/NR2B ion channels expressed in mammalian cells (FLIPR calcium flux)). Details: cloned human NR1/NR2B ion channels, Table 5.
Assay type: cell-based
Outline: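 Compounds were added to dye-loaded cells for 5 min with fluorescence monitored for agonism, followed by co-agonists (glutamate ~EC80, glycine 10 μM saturating) for 5 min. Cells stably expressed inducible human NR1/NR2B, and the buffer was pH 7.4. The FLIPR Ca2+ flux signal was normalized against control wells.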

Chain of cloned human NR1/NR2B ion channels (Q13224 27-1484, other chains not shown): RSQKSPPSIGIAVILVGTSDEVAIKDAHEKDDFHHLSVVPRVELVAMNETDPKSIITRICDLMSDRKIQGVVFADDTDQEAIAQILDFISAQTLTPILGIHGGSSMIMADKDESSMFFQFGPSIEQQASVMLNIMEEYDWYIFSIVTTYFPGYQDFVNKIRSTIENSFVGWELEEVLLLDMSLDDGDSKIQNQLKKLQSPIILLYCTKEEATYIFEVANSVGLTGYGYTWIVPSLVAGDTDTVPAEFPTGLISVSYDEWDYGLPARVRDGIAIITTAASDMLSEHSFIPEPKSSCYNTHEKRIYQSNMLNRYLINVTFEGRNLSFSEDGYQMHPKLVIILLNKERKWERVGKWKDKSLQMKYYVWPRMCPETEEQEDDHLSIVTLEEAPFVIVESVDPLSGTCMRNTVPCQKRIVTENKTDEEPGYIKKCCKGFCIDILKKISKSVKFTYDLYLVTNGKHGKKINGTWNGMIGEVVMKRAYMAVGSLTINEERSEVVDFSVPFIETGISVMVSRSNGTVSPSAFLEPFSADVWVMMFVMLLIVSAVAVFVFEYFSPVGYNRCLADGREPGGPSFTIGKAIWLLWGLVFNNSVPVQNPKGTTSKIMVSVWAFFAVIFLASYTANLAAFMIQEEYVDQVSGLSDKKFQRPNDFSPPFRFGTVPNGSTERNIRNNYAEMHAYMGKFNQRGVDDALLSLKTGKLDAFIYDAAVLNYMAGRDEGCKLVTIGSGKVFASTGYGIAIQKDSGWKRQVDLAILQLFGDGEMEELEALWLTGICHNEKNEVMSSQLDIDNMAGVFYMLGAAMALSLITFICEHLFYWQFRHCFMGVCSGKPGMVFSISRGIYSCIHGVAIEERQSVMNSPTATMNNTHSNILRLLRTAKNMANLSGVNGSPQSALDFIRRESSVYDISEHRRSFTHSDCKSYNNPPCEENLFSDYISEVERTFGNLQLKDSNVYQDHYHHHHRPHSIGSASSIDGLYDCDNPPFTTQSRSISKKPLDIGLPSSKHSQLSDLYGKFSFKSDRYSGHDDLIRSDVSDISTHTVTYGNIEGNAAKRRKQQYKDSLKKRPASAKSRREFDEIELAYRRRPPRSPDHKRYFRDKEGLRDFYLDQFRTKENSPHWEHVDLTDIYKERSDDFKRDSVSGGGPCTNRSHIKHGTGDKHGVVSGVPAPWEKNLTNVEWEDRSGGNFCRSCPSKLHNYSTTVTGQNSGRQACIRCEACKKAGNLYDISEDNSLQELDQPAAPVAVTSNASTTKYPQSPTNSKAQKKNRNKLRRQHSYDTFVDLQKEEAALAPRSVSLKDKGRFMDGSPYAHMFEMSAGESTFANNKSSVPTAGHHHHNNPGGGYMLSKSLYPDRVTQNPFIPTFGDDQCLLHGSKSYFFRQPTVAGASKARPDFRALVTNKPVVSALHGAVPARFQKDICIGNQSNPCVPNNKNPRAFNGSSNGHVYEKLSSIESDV

Going from `CCN(C)C(=O)Cn1cc(C)c2ncc(-c3ccc(F)c(C)c3)cc21` [Example 617, N-Ethyl-2-[6-(4-fluoro-3-methyl-phenyl)-3-methyl-pyrrolo[3,2-b]pyridin-1-yl]-N-methyl-acetamide] to `CCN(C)C(=O)Cn1cc(C)c2ncc(-c3ccc(F)c(F)c3)cc21` [Example 620, 2-[6-(3,4-Difluorophenyl)-3-methyl-pyrrolo[3,2-b]pyridin-1-yl]-N-ethyl-N-methyl-acetamide], the IC50 falls from 50.1 nM to 25.1 nM (2-fold).

Going from `Cc1cc(-c2cnc3c(C)cn(CC(=O)N4CC(F)(F)C4)c3c2)ccc1F` [Example 618, 1-(3,3-Difluoroazetidin-1-yl)-2-[6-(4-fluoro-3-methyl-phenyl)-3-methyl-pyrrolo[3,2-b]pyridin-1-yl]ethanone] to `Cc1cn(CC(=O)N2CC(F)(F)C2)c2cc(-c3ccc(F)c(F)c3)cnc12` [Example 621, 1-(3,3-Difluoroazetidin-1-yl)-2-[6-(3,4-difluorophenyl)-3-methyl-pyrrolo[3,2-b]pyridin-1-yl]ethanone], the IC50 rises from 31.6 nM to 631 nM (20-fold).

First: Cc1cn(CC(=O)N2CCCC2)c2cc(-c3ccc(F)c(F)c3)cnc12 [Example 619, 2-[6-(3,4-Difluorophenyl)-3-methyl-pyrrolo[3,2-b]pyridin-1-yl]-1-pyrrolidin-1-yl-ethanone]
Second: Cc1cn(CC(=O)N2CCCC2)c2cc(-c3cc(F)cc(F)c3)cnc12 [Example 623, 2-[6-(3,5-Difluorophenyl)-3-methyl-pyrrolo[3,2-b]pyridin-1-yl]-1-pyrrolidin-1-yl-ethanone]
The IC50 of the first is 2.5-fold higher: 39.8 nM for the first, 15.8 nM for the second.

`Cc1c(F)ccc(-c2cnc3c(C)cn(CC(=O)N(C)C)c3c2)c1F` [Example 622, 2-[6-(2,4-Difluoro-3-methyl-phenyl)-3-methyl-pyrrolo[3,2-b]pyridin-1-yl]-N,N-dimethyl-acetamide] and `CCN(C)C(=O)Cn1cc(C)c2ncc(-c3ccc(F)c(C)c3F)cc21` [Example 625, 2-[6-(2,4-Difluoro-3-methyl-phenyl)-3-methyl-pyrrolo[3,2-b]pyridin-1-yl]-N-ethyl-N-methyl-acetamide] are the same in IC50: 100 nM for the first, 100 nM for the second.

Compared with `Cc1c(F)ccc(-c2cnc3c(C)cn(CC(=O)N4CCCC4)c3c2)c1F` [Example 624, 2-[6-(2,4-Difluoro-3-methyl-phenyl)-3-methyl-pyrrolo[3,2-b]pyridin-1-yl]-1-pyrrolidin-1-yl-ethanone], `Cc1c(F)ccc(-c2cnc3c(C)cn(CC(=O)N4CCC4)c3c2)c1F` [Example 627, 1-(Azetidin-1-yl)-2-[6-(2,4-difluoro-3-methyl-phenyl)-3-methyl-pyrrolo[3,2-b]pyridin-1-yl]ethanone] is 2-fold higher in IC50: 79.4 nM for the first, 158 nM for the second.

First: Cc1c(F)ccc(-c2cnc3c(C)cn(CC(=O)N4CC(F)(F)C4)c3c2)c1F [Example 626, 1-(3,3-Difluoroazetidin-1-yl)-2-[6-(2,4-difluoro-3-methyl-phenyl)-3-methyl-pyrrolo[3,2-b]pyridin-1-yl]ethanone]
Second: Cc1c(F)ccc(-c2cnc3c(C)cn(CC(=O)N4CC(F)C4)c3c2)c1F [Example 629, 2-[6-(2,4-Difluoro-3-methyl-phenyl)-3-methyl-pyrrolo[3,2-b]pyridin-1-yl]-1-(3-fluoroazetidin-1-yl)ethanone]
The IC50 of the first is 16-fold higher: 631 nM for the first, 39.8 nM for the second. The second is the more potent here.

Compared with `Cc1cn(CC(=O)N(C)C)c2cc(-c3ccc(Cl)s3)cnc12` [Example 628, 2-[6-(5-Chloro-2-thienyl)-3-methyl-pyrrolo[3,2-b]pyridin-1-yl]-N,N-dimethyl-acetamide], `Cc1ccc(-c2cnc3c(C)cn(CC(=O)N(C)C)c3c2)s1` [Example 637, N,N-Dimethyl-2-[3-methyl-6-(5-methyl-2-thienyl)pyrrolo[3,2-b]pyridin-1-yl]acetamide] is 3.2-fold higher in IC50: 100 nM for the first, 316 nM for the second.

Going from `CCN(C)C(=O)Cn1cc(C)c2ncc(-c3ccc(C)s3)cc21` [Example 630, N-Ethyl-N-methyl-2-[3-methyl-6-(5-methyl-2-thienyl)pyrrolo[3,2-b]pyridin-1-yl]acetamide] to `Cc1ccc(-c2cnc3c(C)cn(CC(=O)N4CCC4)c3c2)s1` [Example 633, 1-(Azetidin-1-yl)-2-[3-methyl-6-(5-methyl-2-thienyl)pyrrolo[3,2-b]pyridin-1-yl]ethanone], the IC50 falls from 251 nM to 50.1 nM (5-fold). The second is the more potent here.

First: Cc1ccc(-c2cnc3c(C)cn(CC(=O)N4CCCC4)c3c2)s1 [Example 631, 2-[3-Methyl-6-(5-methyl-2-thienyl)pyrrolo[3,2-b]pyridin-1-yl]-1-pyrrolidin-1-yl-ethanone]
Second: Cc1ccc(-c2cnc3c(C)cn(CC(=O)N4CC(F)C4)c3c2)s1 [Example 634, 1-(3-Fluoroazetidin-1-yl)-2-[3-methyl-6-(5-methyl-2-thienyl)pyrrolo[3,2-b]pyridin-1-yl]ethanone]
The IC50 of the first is 4-fold lower: 158 nM for the first, 631 nM for the second. The first is the more potent here.

`Cc1ccc(-c2cnc3c(C)cn(CC(=O)N4CC(F)(F)C4)c3c2)s1` [Example 632, 1-(3,3-Difluoroazetidin-1-yl)-2-[3-methyl-6-(5-methyl-2-thienyl)pyrrolo[3,2-b]pyridin-1-yl]ethanone] and `Cc1cn(CC(=O)N2CC(F)C2)c2cc(-c3ccc(Cl)s3)cnc12` [Example 636, 2-[6-(5-Chloro-2-thienyl)-3-methyl-pyrrolo[3,2-b]pyridin-1-yl]-1-(3-fluoroazetidin-1-yl)ethanone] are within 1.5-fold of each other in IC50: 200 nM for the first, 158 nM for the second.

Compared with `Cc1cn(CC(=O)N2CC(F)C2)c2cc(-c3cc(F)cc(F)c3)cnc12` [Example 635, 2-[6-(3,5-Difluorophenyl)-3-methyl-pyrrolo[3,2-b]pyridin-1-yl]-1-(3-fluoroazetidin-1-yl)ethanone], `Cc1cn(CC(=O)N2CC(F)C2)c2cc(-c3ccccc3F)cnc12` [Example 638, 1-(3-Fluoroazetidin-1-yl)-2-[6-(2-fluorophenyl)-3-methyl-pyrrolo[3,2-b]pyridin-1-yl]ethanone] is 2.5-fold lower in IC50: 316 nM for the first, 126 nM for the second. The second is the more potent here.

For `CN(C)C(=O)Cn1ccc2ncc(-c3ccc(C(F)F)s3)cc21` [Example 639, 2-[6-[5-(Difluoromethyl)-2-thienyl]pyrrolo[3,2-b]pyridin-1-yl]-N,N-dimethyl-acetamide], the IC50 was 200 nM.
